Marks after values point to notes of the source that are not given here.
Legend:
[1] = Pharmacokinetic based allometry to human; details: allometric scaling, body weights 50-115 kg, 95% CI
Description: Pharmacokinetic based allometry (natural logarithm (ln) transformation) was performed using available pharmacokinetic data (not shown) from various animal species and was used to estimate clearance (CL) and the initial volume of distribution (V1 = Dose/C0; C0 defined as the extrapolated plasma concentration at time zero) in human. Animals had received a single i.v. bolus dose of TRO40303 administered under lipid-based formulations (Intralipid® and liposomes) in rats and pigs or under cremophor EL®/ethanol/saline formulation in dogs and monkeys. The pharmacokinetic parameters were assessed from the mean (for rodents) or individual TRO40303 plasma concentration versus time profiles using a non-compartmental approach “Log Linear Method” (Kinetica™, version 4.4.1). The ln of the CL and the ln of V1 were each plotted against the ln of the animals’ body weight. Finally, using this relationship, the human CL and V1 were estimated based on the human body weight ranging from 50 to 115 kg.

[2] = Solubility in formulation vehicle; format: physicochemical; details: in Intralipid® 30 (IL30), concentrations up to
[3] = Phase I trial pharmacokinetics, single i.v. ascending doses; format: in vivo, human
Description: A randomized, double-blind, placebo controlled study was performed to investigate the safety, tolerability and pharmacokinetics of single i.v. ascending doses of TRO40303 in healthy male and post-menopausal female subjects. The choice of the dose and flow rate escalation process is explained in the Result section. Seventy-two healthy volunteers were randomized, with 18 receiving a placebo and 54 an active liposomal formulation containing 20 mg/mL TRO40303 at final doses ranging from 0.5, 1, 2, 3.5, 6, 10 to 13 mg/kg with escalating flow rates from 0.04 mL/min to 35 mL/min. Within each group, 3 or 6 subjects received TRO40303 and 1 or 2 subjects received the same volume of placebo. The sample size was based on the number of doses and flow rates to be investigated. The 6 verum/2 placebo ratio per group is widely used in single ascending dose studies and provides adequate safety and pharmacokinetic information. The 3 verum/1 placebo ratio used in the last groups was chosen only to explore additional flow rates at previously studied doses.
Venous blood samples (5 mL) were collected for determination of TRO40303 concentrations in plasma at pre-dose, end of infusion, then 5 min, 15 min, 30 min, 1 h, 2 h, 4 h, 8 h, 12 h, 16 h, 24 h, 48 h, 72 h and 96 h post end of infusion into heparin–lithium Vacutainer tubes. The blood samples were gently inverted then centrifuged in a refrigerated centrifuge (+4°C) within 30 min after sampling at 1500 g for ca 10 min. The resulting plasma was frozen in two separate labelled polypropylene tubes at –20 ± 5°C until assaying.
For the quantifying TRO40303 levels in human plasma samples, the same method, GLP validated, was used and the analysis was performed at Bertin Pharma (Orleans, France). Analysis was carried out on 1200 Series (Agilent) and Series 200 (Perkin Elmer) systems interfaced to an API 4000 (AB Sciex) MS detector. Calculations were carried out with Analyst 1.4.1 and 1.5.1 (AB Sciex) software.

[4] = human, single i.v., liposomes, 0.5 mg/kg, n = 4
[5] = human, single i.v., liposomes, 0.5 mg/kg, n = 6
[6] = human, single i.v., liposomes, 1 mg/kg, n = 6
[7] = human, single i.v., liposomes, 2 mg/kg, n = 6
[8] = human, single i.v., liposomes, 3.5 mg/kg, n = 9
[9] = human, single i.v., liposomes, 6 mg/kg, n = 11
[10] = human, single i.v., liposomes, 6 mg/kg, n = 12
[11] = human, single i.v., liposomes, 10 mg/kg, n = 9
[12] = human, single i.v., liposomes, 13 mg/kg, n = 6
[13] = human, single i.v., liposomes, over all doses
[14] = liposomes in human, IL30 in rats

CC(C)CCC[C@@H](C)[C@H]1CC[C@H]2[C@@H]3CC/C(=N\O)[C@](C)(CCCO)[C@H]3CC[C@]12C [TRO40303, 3,5-seco-4-nor-cholestan-5-one oxime-3-ol]
predicted human CL [1]: 0.883 to 3.97 mL/min/kg
predicted human V1 [1]: 0.089 to 0.741 L/kg
solubility [2]: ~ 6 mg/mL
dose proportionality of Cmax and AUC(0-∞) ([3]; human, from 0.5 to 6 mg/kg): linear
hyper-proportionality of Cmax and AUC(0-∞) ([3]; human, from 6 to 13 mg/kg): ~ 1.5 fold
AUC(0-∞) Mean [3, 4]: 15.5* μg.h/mL
AUC(0-∞) Min-max [3, 4]: 9130 to 20900 ng·h/mL
C5min Min-max [3, 5]: 1.59 to 3.92 µg/mL
CL Mean [3, 5]: 0.598 mL/min/kg
CL Min-max [3, 5]: 0.399 to 0.912 mL/min/kg
Cmax Mean [3, 5]: 3320 ng/mL
Cmax Min-max [3, 5]: 2310 to 4850 ng/mL
Terminal t1/2 Mean [3, 5]: 29.5 h
Terminal t1/2 Min-max [3, 5]: 27.0 to 31.5 h
Vz Mean [3, 5]: 1.54 L/kg
Vz Min-max [3, 5]: 0.00103 to 0.00249 L/kg
C5min Mean ([3]; human, single i.v., liposomes, 0.5 mg/kg, n = 6, 5 min post end of infusion): 2.58 µg/mL
AUC(0-∞) Mean [3, 6]: 34.5 µg·h/mL
AUC(0-∞) Min-max [3, 6]: 21000 to 43000 ng·h/mL
C5min Min-max [3, 6]: 5.98 to 12.5 µg/mL
CL Mean [3, 6]: 0.509 mL/min/kg
CL Min-max [3, 6]: 0.388 to 0.792 mL/min/kg
Cmax Mean [3, 6]: 10300 ng/mL
Cmax Min-max [3, 6]: 6060 to 14100 ng/mL
Terminal t1/2 Mean [3, 6]: 25.1 h
Terminal t1/2 Min-max [3, 6]: 22.9 to 26.8 h
Vz Mean [3, 6]: 1.11 L/kg
Vz Min-max [3, 6]: 0.000899 to 0.00177 L/kg
C5min Mean ([3]; human, single i.v., liposomes, 1 mg/kg, n = 6, 5 min post end of infusion): 9.26 µg/mL
C5min Min-max ([3]; human, single i.v., liposomes, 2 mg/kg, n = 5): 16.7 to 26.8 µg/mL
C5min Mean ([3]; human, single i.v., liposomes, 2 mg/kg, n = 5, 5 min post end of infusion): 23.6** μg/mL
AUC(0-∞) Mean [3, 7]: 68.6 µg·h/mL
AUC(0-∞) Min-max [3, 7]: 50700 to 81500 ng·h/mL
CL Mean [3, 7]: 0.499 mL/min/kg
CL Min-max [3, 7]: 0.409 to 0.657 mL/min/kg
Cmax Mean [3, 7]: 23100 ng/mL
Cmax Min-max [3, 7]: 16000 to 31100 ng/mL
Terminal t1/2 Mean [3, 7]: 26.4 h
Terminal t1/2 Min-max [3, 7]: 24.3 to 28.7 h
Vz Mean [3, 7]: 1.14 L/kg
Vz Min-max [3, 7]: 0.00091 to 0.00152 L/kg
AUC(0-∞) Mean [3, 8]: 109 µg·h/mL
AUC(0-∞) Min-max [3, 8]: 81000 to 163000 ng·h/mL
C5min Min-max [3, 8]: 37.1 to 68.7 µg/mL
CL Mean [3, 8]: 0.560 mL/min/kg
CL Min-max [3, 8]: 0.357 to 0.721 mL/min/kg
Cmax Mean [3, 8]: 51700 ng/mL
Cmax Min-max [3, 8]: 37700 to 68700 ng/mL
Terminal t1/2 Mean [3, 8]: 25.1 h
Terminal t1/2 Min-max [3, 8]: 23.1 to 27.7 h
Vz Mean [3, 8]: 1.22 L/kg
Vz Min-max [3, 8]: 0.000723 to 0.00152 L/kg
C5min Mean ([3]; human, single i.v., liposomes, 3.5 mg/kg, n = 9, 5 min post end of infusion): 50.2 µg/mL
AUC(0-∞) Mean [3, 9]: 229*** μg.h/mL
AUC(0-∞) Min-max [3, 9]: 147000 to 307000 ng·h/mL
C5min Min-max [3, 10]: 51.6 to 266 µg/mL
CL Mean [3, 10]: 0.460 mL/min/kg
CL Min-max [3, 10]: 0.326 to 0.680 mL/min/kg
Cmax Mean [3, 10]: 118000 ng/mL
Cmax Min-max [3, 10]: 59500 to 266000 ng/mL
Terminal t1/2 Mean [3, 10]: 24.4 h
Terminal t1/2 Min-max [3, 10]: 21.2 to 30.0 h
Vz Mean [3, 10]: 0.964 L/kg
Vz Min-max [3, 10]: 0.000611 to 0.00134 L/kg
C5min Mean ([3]; human, single i.v., liposomes, 6 mg/kg, n = 12, 5 min post end of infusion): 112 µg/mL
AUC(0-∞) Mean [3, 11]: 408 µg·h/mL
AUC(0-∞) Min-max [3, 11]: 303000 to 501000 ng·h/mL
C5min Min-max [3, 11]: 120 to 279 µg/mL
CL Mean [3, 11]: 0.422 mL/min/kg
CL Min-max [3, 11]: 0.332 to 0.549 mL/min/kg
Cmax Mean [3, 11]: 194000 ng/mL
Cmax Min-max [3, 11]: 130000 to 279000 ng/mL
Terminal t1/2 Mean [3, 11]: 25.3 h
Terminal t1/2 Min-max [3, 11]: 19.3 to 30.2 h
Vz Mean [3, 11]: 0.929 L/kg
Vz Min-max [3, 11]: 0.000624 to 0.00144 L/kg
C5min Mean ([3]; human, single i.v., liposomes, 10 mg/kg, n = 9, 5 min post end of infusion): 193 µg/mL
AUC(0-∞) Mean [3, 12]: 651 µg·h/mL
AUC(0-∞) Min-max [3, 12]: 468000 to 814000 ng·h/mL
C5min Min-max [3, 12]: 148 to 371 µg/mL
CL Mean [3, 12]: 0.347 mL/min/kg
CL Min-max [3, 12]: 0.266 to 0.463 mL/min/kg
Cmax Mean [3, 12]: 259000 ng/mL
Cmax Min-max [3, 12]: 167000 to 371000 ng/mL
Terminal t1/2 Mean [3, 12]: 24.4 h
Terminal t1/2 Min-max [3, 12]: 20.1 to 28.6 h
Vz Mean [3, 12]: 0.723 L/kg
Vz Min-max [3, 12]: 0.000599 to 0.000989 L/kg
C5min Mean ([3]; human, single i.v., liposomes, 13 mg/kg, n = 6, 5 min post end of infusion): 248 µg/mL
Vz [3, 13]: 1.1 L/kg
mean penultimate thalf (when at least 80% of drug was eliminated) [3, 13]: 4 h
mean terminal thalf [3, 13]: 25 h
AUC(0-∞) in humans compared to rats for the same dose [3, 14]: ~ 7 fold
C5min in humans compared to rats for the same dose [3, 14]: ~ 2 fold
